For assay [1], the system named is dental plaque microbes. The assay is described as follows: Culture of dental plaque microbes, streak applied to inoculum, 2 days incubation (FIG. 5). As to conditions: 2 days of incubation. The class given is cell-based.
In assay [2] the test system is dental pulp tissue (dental pulp extraction with chronic pulpitis). The assay is described as follows: Live bacterial cell counting after cannabinoid treatment, dental pulp tissue. In kind it is cell-based, human. On the procedure: (§1) Summary: The method includes: • a. randomized sampling of oral plaque biofilm from different consumers with 0-+4 DPSI, dental pulp extraction with chronic pulpitis; • b. cultivation of the samples in incubator with 37° C., for 1 day. The colonies underwent treatment with different types of compounds CBC, CBD, CBG, CBGA, CBN for 5 minutes; • c. staining with fluorescent special dyes for live bacterial cells, following the cannabinoid compounds' treatment and using one referral without cannabinoids treatment; • d. mounting on 6 channel micro slide dishes with 0.1 high; • e. imaging with Cytetion 5 Biotek microscope on 40 magnification, analyzing and running live cell counting.
Experimental methods: FIG. 6 depicts the steps of the methodology used in this protocol. The methodology includes the following steps: • a. Sample cultivation: Samples are collected with Flexi Grip 1702 Paro interdental brush. Cultivation on AGAR Petri Dish 100/15 mm incubated for 24 hours in 37° C. • b. Compound Treatment: The colonies are treated with 25%, 12.5% dilutions from 5 different type extracts from grower A+B. 0.5 μL compound were place in each vial, 3 colony spots were added, the mixture was agitated in centrifuge with 6-8.000 rpm for 1.5 min and suspended in 500 μL PBS. • c. Staining Mounting: Staining kit Bacstain—CTC Rapid Staining kit BS02 was used. All 5 samples and 1 referral were stained. […]

Assay [3] relates to human oral biofilms (dental plaque). The assay is described as follows: Live bacterial cell counting (CTC staining, Cytation 5 imaging) after cannabinoid treatment of dental plaque colonies. The class given is cell-based. On the procedure: This study evaluates different extracts/compounds on different types of human oral biofilms that normally are plaque-generating, further inducing light to severe periodontal diseases, as scored by DPSI (Dutch periodontic screening index).
as §1, with “counting. […]” for “counting.”
The same procedure was employed on the second slide with the cells treated with 25% dilution of the cannabinoid of grower B. Accordingly slide 3 had the cells from grower A with 12.5% dilution and slide 4 had the cells 12.5% dilution from grower B. • d. […] Imaging modes include fluorescence, brightfield, color brightfield and phase contrast for a broad range of applications including live cell imaging, phenotypic assays, and 3D spheroids. […]

The subject of assay [4] is dental bacteria taken from various patients (oral flora). Briefly: In vitro determination of sensitivity of dental biofilm flora from individual patients to cannabinoid test panels. The class given is cell-based. From the text: Methods of the present invention are hereby exemplified. The trial included two stages: • a. Stage 1: In vitro determination of sensitivity of dental biofilm flora from individual patients to cannabinoid test panels. • b. Stage 2: Effectiveness of toothpaste compounded to individual patient's best cannabinoid panel formulations. Stage 1: In Vitro Determination of Sensitivity of Dental Biofilm Flora from Individual Patients to Cannabinoid Test Panels.
Ten (10) subjects (patients A-J) were involved in the trial. Dental biofilm was collected of these subjects by means of swabs, scrapes and other devices. The bacteria of this dental biofilm were characterized by conventional methods such as growth on selective media, microscopic examination and lab on-chip-laser analysis (e.g. Parochip).
Patient's bacteria from patients A-J were tested in vitro on substrates seeded with a panel of cannabinoids as illustrated in table 1 below:
Column Panels: • 1=CBDA; • 2=CBDA+CBNA; • 3=CBDA+CBNA+CBGA; • 4=CBDA+CBNA+CBGA+CBCA; • 5=CBDA+CBNA+CBGA+CBCA+CBNDA; • 6=Chlorohexadine control, and • 7=control with no antiseptic.
Results of in vitro testing are defined in terms of efficacy of panel cannabinoids in in vitro suppressing oral flora, in increasing scale of: • −, +, ++, +++, ++++, +++++

As to `C=C(C)[C@@H]1CCC(C)=C[C@H]1c1c(O)cc(CCCCC)cc1O` [CBD, Cannabidiol], the “bacterial growth at streak applied to inoculum” value in assay [1] is given as “no bacterial growth”. Further, the “reduction from the live bacterial cells” value in assay [2] is 92%.

For `CCCCCc1cc(O)c(C/C=C(\C)CCC=C(C)C)c(O)c1C(=O)O` [CBGA, Cannabigerolic acid], in assay [3] (25% dilution, grower A, FIG. 10), the “most efficient compound on the plaque of the consumer” value is listed as “most efficient”. In assay [3] (dental plaque), the “reduction from the live bacterial cells” value came to 95%.

For `C=C(C)[C@@H]1CCC(C)=C[C@H]1c1c(O)cc(CCCCC)c(C(=O)O)c1O` [Panel 1, Cannabidiolic acid], the “effectiveness against the flora (in words)” value in assay [4] (flora of patient B) is on record as “effective”. Further, the “in vitro effectiveness of cannabinoids on dental bacteria” value (“in vitro effectiveness of cannabinoids” below) in assay [4] (oral flora sample of patient A) is “++”; in assay [4] (oral flora sample of patient B), “+++++”; in assay [4] (oral flora sample of patient C), “++++”; in assay [4] (oral flora sample of patient D) it was “+”; in assay [4] (oral flora sample of patient E) it was “+++”; in assay [4] (oral flora sample of patient F) it was “−”. Besides, the “in vitro effectiveness of cannabinoids” value in assay [4] (oral flora sample of patient G) is on record as “+++++”; in assay [4] (oral flora sample of patient H) it was “++”; in assay [4] (oral flora sample of patient I), “−”; in assay [4] (oral flora sample of patient J), “−”.

`[H]/N=C(\N/C(=N/[H])NCCCCCCNC(=N)NC(=N)Nc1ccc(Cl)cc1)Nc1ccc(Cl)cc1` [Panel 6, Chlorhexidine, reference compound]: the “in vitro effectiveness of cannabinoids” value in assay [4] (oral flora sample of patient A) is “++”; in assay [4] (oral flora sample of patient B) it was “++”; in assay [4] (oral flora sample of patient C), “+”; in assay [4] (oral flora sample of patient D) it was “++”; in assay [4] (oral flora sample of patient E) it was “−”; in assay [4] (oral flora sample of patient F), “−”. The “in vitro effectiveness of cannabinoids” value in assay [4] (oral flora sample of patient G) is on record as “+++”; in assay [4] (oral flora sample of patient H), “+”; in assay [4] (oral flora sample of patient I) it was “++”; in assay [4] (oral flora sample of patient J) it was “−”.

The record behind these values is patent US12198788B2, “System for detecting an intraoral disease and determining a personalized treatment scheme and method of doing same” (priority 2017, dated 2025).
